In patent publication US20100298141A1, “SUBSTITUTED PYRIDINE N-OXIDE HERBICIDES” (E. I. DU PONT DE NEMOURS AND COMPANY, priority 2007, published 2010):

What was measured:
giant foxtail = test: Test A pre-/postemergence greenhouse test; assay type: in vivo, Setaria faberi; conditions: for Foxtail, Giant plant response rating: 0 to 100 scale; for Plant response rating, Foxtail, Giant: 0 to 100 scale where 0 is no effect and 100 is complete control
In short: (§1)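 Pre: directed soil spray on seeded loam/sand. Post: foliar spray, plants 2–10 cm, 1–2 leaf stage, applied concurrently. Vehicle: non-phytotoxic solvent + surfactant. Greenhouse ~10 d; visual injury rating vs untreated controls.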

velvetleaf = test: Test A pre-/postemergence greenhouse test; assay type: in vivo, Abutilon theophrasti; conditions: for Velvetleaf plant response rating: 0 to 100 scale; for Plant response rating, Velvetleaf: 0 to 100 scale where 0 is no effect and 100 is complete control
In short: as §1

wheat = test: Test C pre-/postemergence test; assay type: in vivo, Triticum aestivum
In short: (§2)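 Seeds were planted and treated preemergence with test chemical in a non-phytotoxic solvent mixture containing surfactant. Postemergence applications of the same formulation went onto plants 2 to 18 cm tall (1- to 4-leaf stage). A dash marks no test result.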

Russian thistle = test: Test C pre-/postemergence test; assay type: in vivo, Salsola kali; conditions: for Plant response rating, Russian Thistle: 31 g ai/ha, scale 0 to 100 (0 no effect, 100 complete control)
In short: as §2

common ragweed = test: Test C pre-/postemergence test; assay type: in vivo, Ambrosia elation
In short: as §2

barnyardgrass = test: Test C flooded paddy test; assay type: in vivo, Echinochloa crus-galli; conditions: Flood
In short: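 Visual injury ratings against untreated controls, taken 13 to 15 days after compound was added to paddy water standing 3 cm above the soil.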

green foxtail = test: Test F preemergence test; assay type: in vivo, Setaria viridis; conditions: scale 0 to 100
In short: (§3)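 Compounds in a non-phytotoxic solvent formulation with surfactant were applied before emergence after sowing, or, for sugarcane, also postemergence. Evaluation was visual, against controls, after 14 to 21 greenhouse days.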

purple nutsedge = test: Test F preemergence test; assay type: in vivo, Cyperus rotundus; conditions: scale 0 to 100
In short: as §3

southern sandbur = test: Test F preemergence test; assay type: in vivo, Cenchrus echinatus; conditions: scale 0 to 100
In short: as §3

annual bluegrass = test: Test F preemergence test; assay type: in vivo, Poa annua; conditions: scale 0 to 100
In short: as §3

field bindweed = test: Test F preemergence test; assay type: in vivo, Convolvulus arvensis; conditions: scale 0 to 100
In short: as §3

common mallow = test: Test F preemergence test; assay type: in vivo, Malva sylvestris; conditions: scale 0 to 100
In short: as §3

[1] = Postemergence, 125 g ai/ha, 0 is no effect, 100 is complete control
[2] = Postemergence, 500 g ai/ha, 0 is no effect, 100 is complete control
[3] = Preemergence, 125 g ai/ha, 0 no effect, 100 complete control
[4] = 62 g ai/ha, Preemergence, scale 0 to 100
[5] = Preemergence, 31 g ai/ha, scale 0 to 100 (0 no effect, 100 complete control)
[6] = 31 g ai/ha, scale 0 to 100 (0 no effect, 100 complete control)
[7] = 62 g ai/ha, scale 0 to 100, 0 no effect, 100 complete control, 13 to 15 days
[8] = 125 g ai/ha, scale 0 to 100, 0 no effect, 100 complete control, 13 to 15 days
[9] = 250 g ai/ha, scale 0 to 100 (0 no effect, 100 complete control)
[10] = 125 g ai/ha, preemergence, scale 0 (no effect) to 100 (complete control)
[11] = Postemergence, 125 g ai/ha, scale 0 to 100, 0 no effect, 100 complete control
[12] = Postemergence, 250 g ai/ha, scale 0 to 100, 0 no effect, 100 complete control
[13] = preemergence, 250 g ai/ha, scale 0 (no effect) to 100 (complete control)
[14] = 250 g ai/ha, scale 0 to 100, 0 no effect, 100 complete control, 13 to 15 days

Cc1cc[n+]([O-])c([S+]([O-])Cc2c(C(F)(F)F)nn(C)c2Cl)c1 (racemic) [Compound 20]
Foxtail, Giant plant response rating (giant foxtail; [1]): 50
Foxtail, Giant plant response rating (giant foxtail; [2]): 80
Foxtail, Giant plant response rating (giant foxtail; [3]): 80
Plant response rating, Foxtail, Giant (giant foxtail; Preemergence, 500 g ai/ha): 100
Velvetleaf plant response rating (velvetleaf; [1]): 30
Velvetleaf plant response rating (velvetleaf; [2]): 60
Velvetleaf plant response rating (velvetleaf; [3]): 0
Plant response rating, Velvetleaf (velvetleaf; Preemergence, 500 g ai/ha): 60
Wheat plant response rating (wheat; [4]): 70
Plant response rating, Wheat (wheat; [5]): 0
Russian Thistle plant response rating (Russian thistle; [4]): 100
Plant response rating, Russian Thistle (Russian thistle; Preemergence): 100
Plant response rating, Ragweed (common ragweed; [5]): 0
Plant response rating, Barnyardgrass (barnyardgrass; [6]): 0
Plant response rating, Barnyardgrass (barnyardgrass; [7]): 0
Plant response rating, Barnyardgrass (barnyardgrass; [8]): 30
Plant response rating, Barnyardgrass (barnyardgrass; [9]): 70
Plant response rating, Foxtail, Green (green foxtail; 8 g ai/ha, preemergence): 0
Foxtail, Green plant response rating (green foxtail; 62 g ai/ha, Preemergence): 75
Plant response rating, Foxtail, Green (green foxtail; Preemergence, 16 g ai/ha): 10
Plant response rating, Foxtail, Green (green foxtail; Preemergence, 31 g ai/ha): 40
Plant response rating, Purple Nutsedge (purple nutsedge; 8 g ai/ha, preemergence): 0
Purple Nutsedge plant response rating (purple nutsedge; 62 g ai/ha, Preemergence): 25
Plant response rating, Purple Nutsedge (purple nutsedge; Preemergence, 16 g ai/ha): 0
Plant response rating, Purple Nutsedge (purple nutsedge; Preemergence, 31 g ai/ha): 0
Plant response rating, Sandbur (southern sandbur; 8 g ai/ha, preemergence): 0
Plant response rating, Sandbur (southern sandbur; 16 g ai/ha, preemergence): 0
Sandbur plant response rating (southern sandbur; 62 g ai/ha, Preemergence): 75
Plant response rating, Sandbur (southern sandbur; Preemergence, 31 g ai/ha): 60
Plant response rating, Bluegrass (annual bluegrass; 8 g ai/ha, preemergence): 0
Bluegrass plant response rating (annual bluegrass; 62 g ai/ha, Preemergence): 40
Plant response rating, Bluegrass (annual bluegrass; Preemergence, 16 g ai/ha): 0
Plant response rating, Bluegrass (annual bluegrass; Preemergence, 31 g ai/ha): 0
Plant response rating, Field Bindweed (field bindweed; 8 g ai/ha, preemergence): 0
Field Bindweed plant response rating (field bindweed; 62 g ai/ha, Preemergence): 15
Plant response rating, Field Bindweed (field bindweed; Preemergence, 16 g ai/ha): 0
Plant response rating, Field Bindweed (field bindweed; Preemergence, 31 g ai/ha): 0
Plant response rating, Mallow (common mallow; 8 g ai/ha, preemergence): 0
Mallow plant response rating (common mallow; 62 g ai/ha, Preemergence): 60
Plant response rating, Mallow (common mallow; Preemergence, 16 g ai/ha): 0
Plant response rating, Mallow (common mallow; Preemergence, 31 g ai/ha): 25

[O-][n+]1cc(Cl)ccc1[S+]([O-])Cc1c(C(F)(F)F)nn(CC(F)(F)F)c1Cl (centres unmarked) [Compound 47]
Plant response rating, Foxtail, Giant (giant foxtail; Postemergence, 125 g ai/ha): 80
Foxtail, Giant plant response rating (giant foxtail; [2]): 90
Foxtail, Giant plant response rating (giant foxtail; [3]): 100
Plant response rating, Foxtail, Giant (giant foxtail; Preemergence, 500 g ai/ha): 100
Plant response rating, Velvetleaf (velvetleaf; Postemergence, 125 g ai/ha): 60
Velvetleaf plant response rating (velvetleaf; [2]): 70
Velvetleaf plant response rating (velvetleaf; [3]): 0
Plant response rating, Velvetleaf (velvetleaf; Preemergence, 500 g ai/ha): 100
Wheat plant response rating (wheat; [4]): 10
Wheat plant response rating (wheat; [10]): 60
Plant response rating (0 to 100), Wheat (wheat; Postemergence, 31 g ai/ha): 0
Plant response rating (0 to 100), Wheat (wheat; Postemergence, 62 g ai/ha): 0
Plant response rating, Wheat (wheat; [11]): 10
Plant response rating, Wheat (wheat; [12]): 50
Plant response rating, Wheat (wheat; [5]): 0
Wheat plant response rating (wheat; [13]): 85
Russian Thistle plant response rating (Russian thistle; [10]): 0
Russian Thistle plant response rating (Russian thistle; [13]): 100
Ragweed plant response rating (common ragweed; [4]): 5
Ragweed plant response rating (common ragweed; [10]): 5
Plant response rating (0 to 100), Ragweed (common ragweed; Postemergence, 31 g ai/ha): 0
Plant response rating (0 to 100), Ragweed (common ragweed; Postemergence, 62 g ai/ha): 0
Plant response rating, Ragweed (common ragweed; [11]): 0
Plant response rating, Ragweed (common ragweed; [12]): 0
Plant response rating, Ragweed (common ragweed; [5]): 0
Ragweed plant response rating (common ragweed; [13]): 50
Plant response rating, Barnyardgrass (barnyardgrass; [7]): 50
Plant response rating, Barnyardgrass (barnyardgrass; [14]): 80

Cn1nc(C(F)(F)F)c(C(Cl)S(=O)(=O)c2cccc[n+]2[O-])c1OCC(F)(F)F (racemic) [Compound 36]
Foxtail, Giant plant response rating (giant foxtail; [1]): 40
Foxtail, Giant plant response rating (giant foxtail; [2]): 70
Foxtail, Giant plant response rating (giant foxtail; [3]): 100
Plant response rating, Foxtail, Giant (giant foxtail; Preemergence, 500 g ai/ha): 100
Velvetleaf plant response rating (velvetleaf; [1]): 0
Velvetleaf plant response rating (velvetleaf; [2]): 40
Velvetleaf plant response rating (velvetleaf; [3]): 40
Plant response rating, Velvetleaf (velvetleaf; Preemergence, 500 g ai/ha): 70
Wheat plant response rating (wheat; [4]): 0
Wheat plant response rating (wheat; [10]): 0
Plant response rating, Wheat (wheat; [5]): 0
Wheat plant response rating (wheat; [13]): 15
Plant response rating, Russian Thistle (Russian thistle; Preemergence): 0
Russian Thistle plant response rating (Russian thistle; [13]): 60
Ragweed plant response rating (common ragweed; [4]): 0
Ragweed plant response rating (common ragweed; [10]): 10
Plant response rating, Ragweed (common ragweed; [5]): 0
Ragweed plant response rating (common ragweed; [13]): 50
Plant response rating, Barnyardgrass (barnyardgrass; [6]): 0
Plant response rating, Barnyardgrass (barnyardgrass; [7]): 10
Plant response rating, Barnyardgrass (barnyardgrass; [8]): 25
Plant response rating, Barnyardgrass (barnyardgrass; [14]): 90

Cc1cc[n+]([O-])c(S(=O)(=O)Cc2c(C(F)(F)F)nn(C)c2OC(C)C(F)(F)F)c1 (centres unmarked) [Compound 96]
Plant response rating, Foxtail, Giant (giant foxtail; Postemergence, 125 g ai/ha): 70
Foxtail, Giant plant response rating (giant foxtail; [2]): 80
Foxtail, Giant plant response rating (giant foxtail; [3]): 100
Plant response rating, Foxtail, Giant (giant foxtail; Preemergence, 500 g ai/ha): 100
Plant response rating, Velvetleaf (velvetleaf; Postemergence, 125 g ai/ha): 50
Velvetleaf plant response rating (velvetleaf; [2]): 60
Velvetleaf plant response rating (velvetleaf; [3]): 40
Velvetleaf plant response rating (velvetleaf; Preemergence, 500 g ai/ha, 0 no effect, 100 complete control): 100
Wheat plant response rating (wheat; [4]): 0
Wheat plant response rating (wheat; [10]): 45
Plant response rating, Wheat (wheat; [5]): 0
Wheat plant response rating (wheat; [13]): 45
Russian Thistle plant response rating (Russian thistle; [4]): 50
Russian Thistle plant response rating (Russian thistle; [10]): 80
Plant response rating, Russian Thistle (Russian thistle; Preemergence): 0
Russian Thistle plant response rating (Russian thistle; [13]): 100
Ragweed plant response rating (common ragweed; [4]): 20
Ragweed plant response rating (common ragweed; [10]): 100
Plant response rating, Ragweed (common ragweed; [5]): 20
Ragweed plant response rating (common ragweed; [13]): 100
Plant response rating, Barnyardgrass (barnyardgrass; 62 g ai/ha, scale 0 to 100 (0 no effect, 100 complete control)): 0
Plant response rating, Barnyardgrass (barnyardgrass; [14]): 0

Cn1nc(C(F)(F)F)c(CS(=O)(=O)c2ccc(Cl)c[n+]2[O-])c1Cl [Compound 18]
Foxtail, Giant plant response rating (giant foxtail; [1]): 60
Foxtail, Giant plant response rating (giant foxtail; [2]): 80
Foxtail, Giant plant response rating (giant foxtail; [3]): 90
Plant response rating, Foxtail, Giant (giant foxtail; Preemergence, 500 g ai/ha): 100
Velvetleaf plant response rating (velvetleaf; [1]): 0
Velvetleaf plant response rating (velvetleaf; [2]): 40
Velvetleaf plant response rating (velvetleaf; [3]): 0
Plant response rating, Velvetleaf (velvetleaf; Preemergence, 500 g ai/ha): 40
Wheat plant response rating (wheat; [4]): 0
Plant response rating, Wheat (wheat; [5]): 0
Russian Thistle plant response rating (Russian thistle; [4]): 30
Plant response rating, Russian Thistle (Russian thistle; Preemergence): 0
Ragweed plant response rating (common ragweed; [4]): 0
Plant response rating, Ragweed (common ragweed; [5]): 0
Plant response rating, Barnyardgrass (barnyardgrass; [6]): 0
Plant response rating, Barnyardgrass (barnyardgrass; [7]): 30
Plant response rating, Barnyardgrass (barnyardgrass; [8]): 75
Plant response rating, Barnyardgrass (barnyardgrass; [9]): 85
